According to patent US8975398B2, “NAMPT inhibitors” (AbbVie Inc., priority 2012, dated 2015):

Tests used:
[1] = molecular target: NAMPT (human, recombinant, C-terminally His-tagged) (Homo sapiens, UniProt P43490); assay: Time-Resolved Fluorescence Resonance Energy Transfer (TR-FRET) Binding Assay of NAMPT; conditions: 6.8 nM NAMPT, 200 nM probe, equilibrated 3 hours, absence of substrates
In short: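 Recombinant C-terminally His-tagged human NAMPT (6.8 nM) incubated 3 h at room temperature with 200 nM Oregon Green 488–labelled nicotinamide-competitive probe and 1 nM Tb-anti-His antibody in HEPES pH 7.5, 2% DMSO. TR-FRET ratio Em520/Em495 normalized to controls; IC50 from four-parameter logistic fit.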

NAMPT = NAMPT (Homo sapiens, UniProt P43490); assay: Time-Resolved Fluorescence Resonance Energy Transfer (TR-FRET) Binding Assay of NAMPT with PRPP; conditions: 2 nM NAMPT, 2 nM probe, 200 uM PRPP and 2.5 mM ATP, equilibrated 16 hours
In short: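 Final mix: 2 nM NAMPT, 2 nM probe, 1 nM Tb-anti-His antibody, 200 uM PRPP, 2.5 mM ATP, 2% DMSO in 1× assay buffer. Equilibrated 16 hours before TR-FRET read, allowing possible enzymatic modification of compounds.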

Sequence of NAMPT (P43490 whole entry): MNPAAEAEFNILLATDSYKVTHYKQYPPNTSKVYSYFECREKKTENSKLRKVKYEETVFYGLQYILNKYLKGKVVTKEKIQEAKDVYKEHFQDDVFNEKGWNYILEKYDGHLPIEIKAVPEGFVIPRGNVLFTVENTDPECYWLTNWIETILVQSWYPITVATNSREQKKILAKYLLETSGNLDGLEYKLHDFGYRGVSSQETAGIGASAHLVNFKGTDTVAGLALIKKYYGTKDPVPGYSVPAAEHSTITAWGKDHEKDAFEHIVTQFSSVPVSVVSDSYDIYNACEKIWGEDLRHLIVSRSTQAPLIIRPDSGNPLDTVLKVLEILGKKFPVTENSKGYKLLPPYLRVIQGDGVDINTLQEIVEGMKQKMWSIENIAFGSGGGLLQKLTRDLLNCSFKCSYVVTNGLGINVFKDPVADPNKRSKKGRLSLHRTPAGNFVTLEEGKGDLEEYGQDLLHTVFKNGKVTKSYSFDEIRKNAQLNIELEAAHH
Sequence of NAMPT (human, recombinant, C-terminally His-tagged) (P43490 whole entry): as above

Row | SMILES | IC50 [1] | IC50 (NAMPT)
1 | O=C(Nc1ccc(OC2CCN(C(=O)c3ccc(OC(F)(F)F)cc3)CC2)cc1)C1CN(c2ccnnc2)C1 [Example 290, 1-(pyridazin-4-yl)-N-[4-({1-[4-(trifluoromethoxy)benzoyl]piperidin-4-yl}oxy)phenyl]azetidine-3-carboxamide] | 99.3 nM | 45.7 nM
2 | O=C(Nc1ccc(OC2CCN(C(=O)c3cc(F)cc(F)c3)CC2)cc1)C1CN(c2cccnn2)C1 [Example 243, N-(4-{[1-(3,5-difluorobenzoyl)piperidin-4-yl]oxy}phenyl)-1-(pyridazin-3-yl)azetidine-3-carboxamide] | 269 nM | 0.97 nM
3 | Cc1ncccc1N1CC(C(=O)Nc2ccc(C3CCN(C(=O)CCN(C)C)CC3)cc2)C1 [Example 168, N-{4-[1-(N,N-dimethyl-beta-alanyl)piperidin-4-yl]phenyl}-1-(2-methylpyridin-3-yl)azetidine-3-carboxamide] | 2940 nM | 171 nM
4 | O=C(Nc1ccc(OC2CCN(C(=O)c3ccc(F)cc3)CC2)cc1)C1CN(c2cccnn2)C1 [Example 230, N-(4-{[1-(4-fluorobenzoyl)piperidin-4-yl]oxy}phenyl)-1-(pyridazin-3-yl)azetidine-3-carboxamide] | 158 nM | 0.843 nM
5 | Cc1ncccc1N1CC(C(=O)Nc2ccc(OC3CCN(C(=O)CC4CCOCC4)CC3)cc2)C1 [Example 4, 1-(2-methylpyridin-3-yl)-N-(4-{[1-(tetrahydro-2H-pyran-4-ylacetyl)piperidin-4-yl]oxy}phenyl)azetidine-3-carboxamide] | 424 nM | 24 nM
6 | O=C(Nc1ccc(OC2CCN(C(=O)CC(F)(F)F)CC2)cc1)C1CN(c2cccnn2)C1 [Example 252, 1-(pyridazin-3-yl)-N-(4-{[1-(3,3,3-trifluoropropanoyl)piperidin-4-yl]oxy}phenyl)azetidine-3-carboxamide] | 238 nM | 1.1 nM
7 | O=C(Nc1ccc(OC2CN(C(=O)CC(F)(F)F)C2)cc1)C1CN(c2ccnnc2)C1 [Example 258, 1-(pyridazin-4-yl)-N-(4-{[1-(3,3,3-trifluoropropanoyl)azetidin-3-yl]oxy}phenyl)azetidine-3-carboxamide] | 108 nM | 34.8 nM
8 | O=C(Nc1ccc(OC2CCN(C(=O)[C@H]3CCCO3)CC2)cc1)[C@H]1CCN(c2cccnc2)C1 [Example 14, (3S)-1-(pyridin-3-yl)-N-[4-({1-[(2R)-tetrahydrofuran-2-ylcarbonyl]piperidin-4-yl}oxy)phenyl]pyrrolidine-3-carboxamide] | 3840 nM | 3.08 nM
9 | CC[C@H](C)C(=O)N1CCC(Oc2ccc(NC(=O)C3CN(c4cccnn4)C3)cc2)CC1 [Example 212, N-[4-({1-[(2S)-2-methylbutanoyl]piperidin-4-yl}oxy)phenyl]-1-(pyridazin-3-yl)azetidine-3-carboxamide] | 70.4 nM | 0.787 nM
10 | O=C(Nc1ccc(OC2CCN(C(=O)C3CCCO3)CC2)cc1)C1CN(c2ccnnc2)C1 (centres unmarked) [Example 302, 1-(pyridazin-4-yl)-N-(4-{[1-(tetrahydrofuran-2-ylcarbonyl)piperidin-4-yl]oxy}phenyl)azetidine-3-carboxamide] | 150 nM | 48.3 nM
11 | O=C(Nc1ccc(OC2CCN(C(=O)Cc3ccc(F)cc3)CC2)cc1)C1CN(c2ccnnc2)C1 [Example 276, N-[4-({1-[(4-fluorophenyl)acetyl]piperidin-4-yl}oxy)phenyl]-1-(pyridazin-4-yl)azetidine-3-carboxamide] | 134 nM | 34.9 nM
12 | O=C(Nc1ccc(OC2CCN(C(=O)c3nccs3)CC2)cc1)C1CN(c2cccnn2)C1 [Example 213, 1-(pyridazin-3-yl)-N-(4-{[1-(1,3-thiazol-2-ylcarbonyl)piperidin-4-yl]oxy}phenyl)azetidine-3-carboxamide] | 104 nM | 0.678 nM
13 | CC(C)CN1CCC(Oc2ccc(NC(=O)C3CN(c4cccnc4)C3)cc2)CC1 [Example 76, N-(4-{[1-(2-methylpropyl)piperidin-4-yl]oxy}phenyl)-1-(pyridin-3-yl)azetidine-3-carboxamide] | 1920 nM | 0.44 nM
14 | COc1ccncc1N1CC(C(=O)Nc2ccc(C3CCN(C(=O)C(C)(C)O)CC3)cc2)C1 [Example 96, N-{4-[1-(2-hydroxy-2-methylpropanoyl)piperidin-4-yl]phenyl}-1-(4-methoxypyridin-3-yl)azetidine-3-carboxamide] | 115 nM | 282 nM
15 | CCCCN1CCC(c2ccc(NC(=O)C3CN(c4cccnc4)C3)cc2)CC1 [Example 91, N-[4-(1-butylpiperidin-4-yl)phenyl]-1-(pyridin-3-yl)azetidine-3-carboxamide] | 992 nM | 0.868 nM
16 | O=C1CC[C@H](C(=O)N2CCC(c3ccc(NC(=O)C4CN(c5cccnc5)C4)cc3)CC2)N1 [Example 106, N-{4-[1-(5-oxo-D-prolyl)piperidin-4-yl]phenyl}-1-(pyridin-3-yl)azetidine-3-carboxamide] | 160 nM | 0.221 nM
17 | O=C(Nc1ccc(OC2CCN(C(=O)CC3CCOCC3)CC2)cc1)C1CN(c2cnccc2C(F)(F)F)C1 [Example 7, N-(4-{[1-(tetrahydro-2H-pyran-4-ylacetyl)piperidin-4-yl]oxy}phenyl)-1-[4-(trifluoromethyl)pyridin-3-yl]azetidine-3-carboxamide] | 104 nM | 84.7 nM
18 | O=C(Nc1ccc(OC2CCN(C(=O)c3cccc(Cl)c3)CC2)cc1)C1CN(c2cccnn2)C1 [Example 250, N-(4-{[1-(3-chlorobenzoyl)piperidin-4-yl]oxy}phenyl)-1-(pyridazin-3-yl)azetidine-3-carboxamide] | 107 nM | 0.641 nM
19 | COCCOCC(=O)N1CCC(c2ccc(NC(=O)C3CN(c4cccnc4C)C3)cc2)CC1 [Example 183, N-(4-{1-[(2-methoxyethoxy)acetyl]piperidin-4-yl}phenyl)-1-(2-methylpyridin-3-yl)azetidine-3-carboxamide] | 1040 nM | 185 nM

Stronger by IC50 [1], values ahead:

Row | IC50 [1] | IC50 (NAMPT) | SMILES
20 | 33.7 nM | 67.9 nM | Cc1ncccc1N1CC(C(=O)Nc2ccc(C3CCN(C(=O)c4ccsc4)CC3)cc2)C1 [Example 169, 1-(2-methylpyridin-3-yl)-N-{4-[1-(thiophen-3-ylcarbonyl)piperidin-4-yl]phenyl}azetidine-3-carboxamide]
21 | 65.9 nM | 109 nM | O=C(Nc1ccc(C2CCN(C(=O)C3CCOCC3)CC2)cc1)C1CN(c2ccnnc2)C1 [Example 146, 1-(pyridazin-4-yl)-N-{4-[1-(tetrahydro-2H-pyran-4-ylcarbonyl)piperidin-4-yl]phenyl}azetidine-3-carboxamide]
22 | 41.6 nM | 0.666 nM | Cc1ccc(C(=O)N2CCC(Oc3ccc(NC(=O)C4CN(c5cccnc5)C4)cc3)CC2)s1 [Example 62, N-[4-({1-[(5-methylthiophen-2-yl)carbonyl]piperidin-4-yl}oxy)phenyl]-1-(pyridin-3-yl)azetidine-3-carboxamide]
23 | 10.2 nM | 0.284 nM | CC[C@H](C)C(=O)N1CCC(Oc2ccc(NC(=O)C3CN(c4cccnc4)C3)cc2)CC1 [Example 32, N-[4-({1-[(2S)-2-methylbutanoyl]piperidin-4-yl}oxy)phenyl]-1-(pyridin-3-yl)azetidine-3-carboxamide]
24 | 37.7 nM | 22.3 nM | O=C(Nc1ccc(OC2CCN(C(=O)C(F)(F)c3ccccc3)CC2)cc1)C1CN(c2ccnnc2)C1 [Example 269, N-[4-({1-[difluoro(phenyl)acetyl]piperidin-4-yl}oxy)phenyl]-1-(pyridazin-4-yl)azetidine-3-carboxamide]
25 | 42.9 nM | 20.1 nM | CC(C)Cn1cc(-c2ccc(NC(=O)C3CN(c4ccnnc4)C3)cc2)cn1 [Example 148, N-{4-[1-(2-methylpropyl)-1H-pyrazol-4-yl]phenyl}-1-(pyridazin-4-yl)azetidine-3-carboxamide]
26 | 37.4 nM | 0.988 nM | Cc1cc(C)cc(C(=O)N2CCC(c3ccc(NC(=O)C4CN(c5cccnn5)C4)cc3)CC2)c1 [Example 361, N-{4-[1-(3,5-dimethylbenzoyl)piperidin-4-yl]phenyl}-1-(pyridazin-3-yl)azetidine-3-carboxamide]
27 | 15 nM | 0.267 nM | CC(C)C(=O)N1CCC(c2ccc(NC(=O)C3CN(c4cccnc4)C3)cc2)CC1 [Example 30, N-{4-[1-(2-methylpropanoyl)piperidin-4-yl]phenyl}-1-(pyridin-3-yl)azetidine-3-carboxamide]
28 | 23.8 nM | 24.1 nM | O=C(Nc1ccc(OC2CN(C(=O)c3ccccc3)C2)cc1)C1CN(c2ccnnc2)C1 [Example 206, N-{4-[(1-benzoylazetidin-3-yl)oxy]phenyl}-1-(pyridazin-4-yl)azetidine-3-carboxamide]
29 | 35.7 nM | 0.742 nM | CC(C)C(C)C(=O)N1CCC(Oc2ccc(NC(=O)C3CN(c4cccnc4)C3)cc2)CC1 (centres unmarked) [Example 70, N-(4-{[1-(2,3-dimethylbutanoyl)piperidin-4-yl]oxy}phenyl)-1-(pyridin-3-yl)azetidine-3-carboxamide]
30 | 68.2 nM | 1.14 nM | O=C(Nc1ccc(OC2CCN(C(=O)C(F)(F)c3ccccc3)CC2)cc1)C1CN(c2cccnn2)C1 [Example 215, N-[4-({1-[difluoro(phenyl)acetyl]piperidin-4-yl}oxy)phenyl]-1-(pyridazin-3-yl)azetidine-3-carboxamide]
31 | 41.2 nM | 14.6 nM | Cc1ncccc1N1CC(C(=O)Nc2ccc(C3CCN(C(=O)C(C)(C)O)CC3)cc2)C1 [Example 71, N-{4-[1-(2-hydroxy-2-methylpropanoyl)piperidin-4-yl]phenyl}-1-(2-methylpyridin-3-yl)azetidine-3-carboxamide]
